Reference: EP1202724B1, “METHOD FOR TREATING CHRONIC PAIN USING MEK INHIBITORS” (WARNER-LAMBERT COMPANY, priority 1999, dated 2001)
“Also recorded” adds a separate entry of the source.

What was measured:
[1] = system: APK; assay: APK IC50; assay type: biochemical
[2] = system: CCI-induced static allodynia; assay: CCI-induced static allodynia (chronic constriction injury of the sciatic nerve), von Frey hairs (Biological Example 2); assay type: in vivo, rat
Experimental: (§1) Male Sprague Dawley rats (250-300g), obtained from Charles River, Margate, U.K.) were housed in groups of 3-6. All animals were kept under a 12h light/dark cycle (lights on at 07h 00min) with food and water ad libitum. All experiments were carried out by an observer blind to drug treatments.
(§2) Animals were anaesthetised with 2% isoflurane 1:4 O2/N2O mixture maintained during surgery via a nose cone. The sciatic nerve was ligated as previously described by Bennett and Xie, 1988. Animals were placed on a homeothermic blanket for the duration of the procedure. After surgical preparation the common sciatic nerve was exposed at the middle of the thigh by blunt dissection through biceps femoris. Proximal to the sciatic trifurcation, about 7mm of nerve was freed of adhering tissue and 4 ligatures (4-0 silk) were tied loosely around it with about 1mm spacing. The incision was closed in layers and the wound treated with topical antibiotics.
(§3) PD 198306 and pregabalin were administered intrathecally in a volume of 10 µl using a 100 µl Hamilton syringe by exposing the spine of the rats under brief isoflurane anaesthesia. Injections were made into the intrathecal space between lumbar region 5-6 with a 10 mm long 27 gauge needle. Penetrations were judged successful if there was a tail flick response. The wound was sealed with an autoclip and rats appeared fully awake within 2-3 min following injection.
(§4) Mechanical hypersensitivity was measured using Semmes-Weinstein von Frey hairs (Stoelting, Illinois, U.S.A.). Animals were placed into wire mesh bottom cages allowing access to the underside of their paws. Animals were habituated to this environment prior to the start of the experiment. Mechanical hypersensitivity was tested by touching the plantar surface of the animals right hind paw with von Frey hairs in ascending order of force ( 0.7, 1.2, 1.5, 2, 3.6, 5.5, 8.5, 11.8, 15.1 and 29g) for up to 6sec. Once a withdrawal response was established, the paw was re-tested, starting with the next descending von Frey hair until no response occurred. The highest force of 29g lifted the paw as well as eliciting a response, thus represented the cut off point. The lowest amount of force required to elicit a response was recorded as the paw withdrawal threshold (PWT) in grams.
(§5) Static allodynia was assessed with von Frey hairs, before (baseline, BL) and 0.5h, 1h and 2h after intrathecal or intraplantar administration of PD 198306 (1-30µg, i.t.), vehicle (cremophor:ethanol:water, 1:1:8) or pregabalin (10µg, i.t). For oral administration experiments, static allodynia was assessed with von Frey hairs, before (baseline, BL) and 1h after oral administration of PD 198306 (3-30mg/kg, p.o.), vehicle (cremophor:ethanol:water, 1:1:8) or pregabalin (30mg/kg, p.o.). Animals were administered again the same compounds on the following day, both in the morning and the afternoon. Static allodynia was assessed before and 1h after the morning administration. In the afternoon static allodynia was assessed before, 1h, 2h and 3h after administration for streptozocin treated animals. CCI animals were assessed before, 1h and 2h after administration
(§6) PD 198306 and pregabalin were synthesised at Parke-Davis (Ann Arbor, Ml, USA). PD 198306 was suspended in cremophor:ethanol:water (1:1:8) vehicle. Pregabalin was dissolved in water. Both compounds were administered orally, intrathecally or intraplantar in volumes of 1ml/kg, 10µl and 100µl respectively. Streptozocin (Aldrich, UK) was dissolved in 0.9% w/v NaCl and administered intraperitoneally in a volume of 1ml/kg.
(§7) Data were analysed using a Kruskall-Wallis ANOVA for non-parametric results, followed when significant by Mann-Whitney's t test vs vehicle group.

[3] = system: streptozocin-induced static allodynia; assay: streptozocin-induced static allodynia, von Frey hairs, oral, intrathecal or intraplantar administration (Biological Example 2); assay type: in vivo, rat
Experimental: as §1
Diabetes was induced in rats by a single i.p. injection of streptozocin (50mg/kg) as described previously (Courteix et al., 1993).
as §3, §4, §5, §6, §7

[4] = system: streptozocin-induced static allodynia; assay: streptozocin-induced static allodynia, von Frey hairs, oral administration (Biological Example 1); assay type: in vivo, rat
Experimental: Male Sprague Dawley rats (250-300g), obtained from Bantin and Kingman, (Hull, U.K.) were housed in groups of 3. All animals were kept under a 12h light/dark cycle (lights on at 07h 00min) with food and water ad libitum. All experiments were carried out by an observer blind to drug treatments.
Diabetes was induced in rats by a single i.p. injection of streptozocin (50 mg/kg) as described previously (Courteix et al., 1993).
as §4, with “to 6 sec.” for “to 6sec.”, “of 29 g” for “of 29g”
PD 198306 [N-Cyclopropylmethoxy-3,4,5-trifluoro-2-(4-iodo-2-methylphenylamino)-benzamide] and Cl-1008 (pregabalin) were synthesized at Parke-Davis (Ann Arbor, Ml, USA). PD 198306 was suspended in cremophor:ethanol:water (1:1:8) vehicle. Pregabalin was dissolved in water. Both compounds were administered orally. Streptozocin (Aldrich, UK) was dissolved in 0.9% w/v NaCI and administered intraperitoneally. Drug administrations were made in a volume of 1 ml/kg.
The static allodynia data were analysed using a Kruskall-Wallis ANOVA for non-parametric results, followed when significant by Mann-Whitney's t test.
Static allodynia was assessed with von Frey hairs, before (baseline, BL) and 1h after oral administration of PD 198306 (30mg/kg, p.o.), vehicle (cremophor:ethanol:water, 1:1:8) or pregabalin (30mg/kg, p.o.) (test). Animals were administered again the same compounds on the following day, both in the morning and the afternoon. Static allodynia was assessed only before and 1h after the afternoon administration, in order to minimise the habituation of the animals to the testing conditions. Animals treated with pregabalin received water in the morning administration, in order to avoid the potential development of tolerance to the compound with repeated administration.

[5] = system: CCI-induced static allodynia; assay: static allodynia in CCI animals after intrathecal administration of other MEK inhibitors (Biological Example 3); assay type: in vivo, rat; details: for magnitude of the antiallodynic effect: intrathecal, 30µg of PD 184352 compared with 100µg of pregabalin
Text: as §2, §3, §4
The animals and methods for developing chronic constriction injury in the rat, injecting test compounds, and evaluation of static allodynia were according to Example 2 above. […] Static allodynia was assessed with von Frey hairs, before (baseline, BL) and 0.5h, 1h and 2h after intrathecal administration of the compounds
Pregabalin was dissolved in water. All compounds were administered intrathecally in a 10µl volume.
as §7

[6] = molecular target: MEK; assay: affinity (binding affinities) of the MEK inhibitors; details: affinity of the MEK inhibitors tested in the CCI model
[7] = single administration 30mg/kg p.o., 1h after administration
[8] = intrathecal, streptozocin animals

## O=C(O)c1cc([N+](=O)[O-])c(Nc2ccc(I)cc2Cl)c(F)c1Nc1ccc(I)cc1Cl [2,4-bis-(2-chloro-4-iodo-phenylamino)-3-fluoro-5-nitrobenzoic acid]
[1]
  IC50: 29.6 nM

## CC(C)C[C@H](CN)CC(=O)O [pregabalin, reference compound]
[2]; [7]
  CCI-induced static allodynia: significantly blocked
[3]; [7]
  streptozocin-induced static allodynia: significantly blocked
[4]; [7]
  streptozocin-induced static allodynia: significantly blocked
[5]
  magnitude of the antiallodynic effect: similar

## O=C(NOCC1CC1)c1ccc(F)c(F)c1Nc1ccc(I)cc1Cl [PD 184352]
[5]; intrathecal 30µg
  duration of antiallodynic effect post-injection: 30 min
  effect on static allodynia: blocked the maintenance of static allodynia
[5]
  magnitude of the antiallodynic effect: similar

## COC(=O)c1cc(S(=O)(=O)N(C)C)c(F)c(F)c1Nc1ccc(I)cc1Cl [2-(2-chloro-4-iodo-phenylamino)-5-dimethylsulfamoyl-3,4-difluoro-benzoic acid methyl ester]
[1]
  IC50: 222 nM

## Cc1cc(I)ccc1Nc1c(C(=O)NOCC2CC2)cc(F)c(F)c1F [PD 198306, N-Cyclopropylmethoxy-3,4,5-trifluoro-2-(4-iodo-2-methylphenylamino)-benzamide]
[2]; 3-30mg/kg p.o., single or multiple administration
  CCI-induced static allodynia: had no effect; also recorded: neither a single or multiple administration of PD 198306 (3-30mg/kg, p.o) had any effect
[2]; intraplantar 3mg/100µl, CCI animals
  static allodynia: had no effect
[2]; intrathecal 30µg (highest dose), CCI animals
  maintenance of static allodynia: totally blocked; also recorded: significantly blocked
[2]; intrathecal 1-30µg, CCI animals
  maintenance of static allodynia: dose-dependently blocked
[2]; intrathecal, CCI animals
  duration of antiallodynic effect: up to 1 h
  minimum effective dose (MED): 10 µg
[2]; intrathecal, CCI animals, listed as PD198306
  duration of antiallodynic effect: 1 h
[3]; 30mg/kg p.o., after the third administration
  duration of block of streptozocin-induced static allodynia: 2 h
[3]; intraplantar 3mg/100µl, streptozocin animals
  static allodynia: had no effect
[3]; intrathecal 30µg (highest dose), streptozocin animals
  maintenance of static allodynia: totally blocked; also recorded: significantly blocked
[3]; intrathecal 1-30µg, streptozocin animals
  maintenance of static allodynia: dose-dependently blocked
[3]; [8]
  duration of antiallodynic effect: up to 1 h
  minimum effective dose (MED): 3 µg
[3]; intrathecal, streptozocin animals, listed as PD198306
  duration of antiallodynic effect: 1 h
[3]; p.o., 30mg/kg, after the third administration (3 doses over two days), 30 mg/kg
  streptozocin-induced static allodynia: transient effect; also recorded: significantly blocked
[3]; single administration 3-30mg/kg p.o., 1h after administration
  streptozocin-induced static allodynia: had no effect
[4]; 30mg/kg p.o., 1h after the third administration (administered twice more on the following day)
  streptozocin-induced static allodynia: significantly blocked
[4]; 30mg/kg p.o., day after the third administration
  persistence of the effects on streptozocin-induced static allodynia: had disappeared by the following day
[4]; [7]
  streptozocin-induced static allodynia: had no effect

## NS(=O)(=O)c1cc(C(=O)NOCC2CC2)c(Nc2ccc(I)cc2Cl)c(F)c1F [PD219622, 2-(2-chloro-4-iodo-phenylamino)-N-cyclopropylmethoxy-3,4-difluoro-5-sulfamoyl-benzamide]
[5]; intrathecal 30µg
  effect on static allodynia: had no significant effect
[6]
  IC50: 100 nM

## O=S(=O)(NOCC1CC1)c1ccc(F)c(F)c1Nc1ccc(I)cc1Cl [PD 0297447, 2-(2-Chloro-4-iodo-phenylamino)-N-cyclopropylmethoxy-3,4-difluoro-benzenesulfonamide]
[1]
  IC50: 965 nM
[5]; intrathecal 30µg
  effect on static allodynia: had no significant effect
[6]
  IC50: 965 nM
